Reference: ChEMBL document CHEMBL2384920, “Ester prodrugs of acyclic nucleoside thiophosphonates compared to phosphonates: synthesis, antiviral activity and decomposition study” (Eur J Med Chem, 2013)
The source made the active and inactive calls. No cut-off for these calls is given here.

Columns and labels:
[1] = Prodrug conversion assessed as snake venome phosphodiesterase-mediated phosphonate monoester formation at 5 mM; assay type: ADME; details: crotalus adamanteus, 5000 µM
[2] = Stability of the compound in DMEM assessed as half life of first step of hydrolysis; assay type: physicochemical
[3] = Half life of the compound in presence of carboxyesterase; assay type: physicochemical
[4] = Stability of the compound in RPMI-1640 assessed as half life of first step of hydrolysis; assay type: physicochemical
[5] = Cytotoxicity against human HEL cells assessed as effect on cell morphology; assay type: cell-based
Vaccinia virus [6] = assay: Antiviral activity against Vaccinia virus infected in human HEL cells assessed as reduction of virus-induced cytopathicity measured at day 3 by microscopic analysis; assay type: functional, organism-based; details: Orthopoxvirus vaccinia, 72 h
Human alphaherpesvirus 2 = assay: Antiviral activity against Human simplex virus 2 G infected in human HEL cells assessed as reduction of virus-induced cytopathicity measured at day 3 by microscopic analysis; assay type: functional, organism-based; details: Human alphaherpesvirus 2, strain G, 72 h
Human alphaherpesvirus 1 [7] = assay: Antiviral activity against thymidine kinase-deficient Human simplex virus 1 KOS infected in human HEL cells assessed as reduction of virus-induced cytopathicity measured at day 3 by microscopic analysis; assay type: functional, organism-based; details: Human alphaherpesvirus 1, KOS, 72 h
[8] = Cytotoxicity against mock-infected human CEM cells assessed as growth inhibition; assay type: cell-based, CCRF-CEM
Human alphaherpesvirus 1 [9] = assay: Antiviral activity against Human simplex virus 1 KOS infected in human HEL cells assessed as reduction of virus-induced cytopathicity measured at day 3 by microscopic analysis; assay type: functional, organism-based; details: Human alphaherpesvirus 1, KOS, 72 h
[10] = test system: Human immunodeficiency virus 2; assay: Antiviral activity against wild type HIV-2 ROD infected in human CEM cells assessed as inhibition of syncytia formation after 4 days by microscopic analysis; assay type: functional, organism-based; details: Human immunodeficiency virus 2, ISOLATE ROD, CCRF-CEM, 96 h
[11] = test system: Human immunodeficiency virus 1; assay: Antiviral activity against wild type HIV-1 3B infected in human CEM cells assessed as inhibition of syncytia formation after 4 days by microscopic analysis; assay type: functional, organism-based; details: Human immunodeficiency virus 1, 3B, CCRF-CEM, 96 h
Hepatitis B virus = assay: Antiviral activity against wild type HBV transfected in human HuH7 cells assessed as reduction of viral DNA level after 7 days by qPCR analysis; assay type: functional, organism-based; details: Huh-7, 168 h
[12] = Cytotoxicity against human HuH7 cells assessed as reduction of cell density; assay type: cell-based, Huh-7
[13] = Prodrug conversion assessed as snake venome phosphodiesterase-mediated PMEA formation at 5 mM; assay type: ADME; details: crotalus adamanteus, 5000 µM
Vaccinia virus [14] = assay: Antiviral activity against Vaccinia virus infected in human HEL cells assessed as reduction of virus-induced cytopathicity at 200 uM measured at day 3 by microscopic analysis; assay type: functional, organism-based; details: Orthopoxvirus vaccinia
[15] = Prodrug conversion assessed as snake venome phosphodiesterase-mediated (R)-9-[2-(Thiophosphonomethoxy)propyl]adenine disodium salt formation at 5 mM; assay type: ADME; details: crotalus adamanteus, 5000 µM
[16] = Prodrug conversion assessed as snake venome phosphodiesterase-mediated thiophosphonate monoester formation at 5 mM; assay type: ADME; details: crotalus adamanteus, 5000 µM
[17] = Prodrug conversion assessed as snake venome phosphodiesterase-mediated PMPA formation at 5 mM; assay type: ADME; details: crotalus adamanteus, 5000 µM

Compound: CC(C)(C)C(=O)OCOP(=O)(COCCn1cnc2c(N)ncnc21)OCOC(=O)C(C)(C)C [ADEFOVIR DIPIVOXIL]
- Drug metabolism [1]: Active
- half-life [2]: 1 h
- half-life [3]: > 7 h
- half-life [4]: 1 h
- MCC [5]: > 50 µM
- EC50 (Vaccinia virus [6]): 4000 nM
- EC50 (Human alphaherpesvirus 2): 200 nM
- EC50 (Human alphaherpesvirus 1 [7]): 200 nM
- CC50 [8]: 1600 nM
- EC50 (Human alphaherpesvirus 1 [9]): 200 nM
- EC50 [10]: 62 nM
- EC50 [11]: 45 nM
- EC50 (Hepatitis B virus): 830 nM
- CC50 [12]: > 25000 nM

Compound: CC(C)(C)C(=O)OCOP(=O)([O-])COCCn1cnc2c(N)ncnc21.[Na+]
- Drug metabolism [13]: Active

Compound: Nc1nc2c(ncn2COCCO)c(=O)[nH]1 [ACYCLOVIR]
- MCC [5]: > 250 µM
- EC50 (Vaccinia virus [6]): > 250000 nM
- EC50 (Human alphaherpesvirus 1 [7]): 29000 nM

Compound: Nc1ncnc2c1ncn2CCOCP(=O)(O)S (centres undefined)
- Activity (Vaccinia virus [14]): Active

Compound: Nc1ccn(C[C@@H](CO)OCP(=O)(O)O)c(=O)n1 [CIDOFOVIR]
- MCC [5]: > 250 µM

Compound: Nc1ncnc2c1ncn2CCOCP(=O)(O)O
- Activity (Vaccinia virus [14]): inactive

Compound: CC(C)OC(=O)OCOP([O-])(=S)CO[C@H](C)Cn1cnc2c(N)ncnc21.[Na+] (some centres undefined)
- Drug metabolism [15]: Active

Compound: CC(C)OC(=O)OCOP(=S)(CO[C@H](C)Cn1cnc2c(N)ncnc21)OCOC(=O)OC(C)C
- Drug metabolism [16]: Active
- MCC [5]: > 50 µM
- EC50 (Vaccinia virus [6]): > 50000 nM
- EC50 (Human alphaherpesvirus 2): > 50000 nM
- EC50 (Human alphaherpesvirus 1 [7]): > 50000 nM
- CC50 [8]: > 25000 nM
- EC50 (Human alphaherpesvirus 1 [9]): > 50000 nM
- EC50 [10]: 130 nM
- EC50 [11]: 92 nM
- EC50 (Hepatitis B virus): 1140 nM
- CC50 [12]: > 25000 nM

Compound: CC(C)(C)C(=O)OCOP(=S)(COCCn1cnc2c(N)ncnc21)OCOC(=O)C(C)(C)C
- Drug metabolism [16]: Active
- MCC [5]: > 50 µM
- EC50 (Vaccinia virus [6]): 29000 nM
- EC50 (Human alphaherpesvirus 2): 3900 nM
- EC50 (Human alphaherpesvirus 1 [7]): 3900 nM
- CC50 [8]: 2000 nM
- EC50 (Human alphaherpesvirus 1 [9]): 3900 nM
- EC50 [10]: ≥ 200 nM
- EC50 [11]: ≥ 200 nM
- EC50 (Hepatitis B virus): 1450 nM
- CC50 [12]: > 25000 nM

Compound: CC(C)OC(=O)OCOP(=O)(CO[C@H](C)Cn1cnc2c(N)ncnc21)OCOC(=O)OC(C)C [TENOFOVIR DISOPROXIL]
- Drug metabolism [1]: Active
- half-life [2]: 1 h
- half-life [4]: 1 h
- MCC [5]: > 50 µM
- EC50 (Vaccinia virus [6]): > 50000 nM
- EC50 (Human alphaherpesvirus 2): 5800 nM
- EC50 (Human alphaherpesvirus 1 [7]): 9600 nM
- CC50 [8]: > 25000 nM
- EC50 (Human alphaherpesvirus 1 [9]): 5800 nM
- EC50 [10]: 13 nM
- EC50 [11]: 16 nM
- EC50 (Hepatitis B virus): 880 nM
- CC50 [12]: > 25000 nM

Compound: CC(C)OC(=O)OCOP(=O)([O-])CO[C@H](C)Cn1cnc2c(N)ncnc21.[Na+]
- Drug metabolism [17]: Active
- half-life [3]: > 7 h
